Assay results reported in patent publication US9693556B2, “Herbicidal pyridazinone derivatives” (SYNGENTA LIMITED, priority 2011, dated 2017).

Assays:
Assay type in all cases: in vivo
[1] = test system: Ipomoea hederacea (IPOHE); experiment: Pre-emergence herbicidal glasshouse test on Ipomoea hederacea; conditions: for PRE Application IPOHE herbicidal damage (five point scale): pre-emergence, 1000 g/h, evaluated after 13 days
Description: (§1) Seeds of a variety of test species are sown in standard soil in pots (Alopecurus myosuroides (ALOMY), Setaria faberi (SETFA), Echinochloa crus-galli (ECHCG), Solanum nigrum (SOLNI), Amaranthus retoflexus (AMARE), Ipomoea hederacea (IPOHE)). After cultivation for one day (pre-emergence) or after 8 days cultivation (post-emergence) under controlled conditions in a glasshouse (at 24/16° C., day/night; 14 hours light; 65% humidity), the plants are sprayed with an aqueous spray solution derived from the formulation of the technical active ingredient in acetone/water (50:50) solution containing 0.5% Tween 20 (polyoxyethelyene sorbitan monolaurate, CAS RN 9005-64-5). Compounds are applied at 1000 g/h. The test plants are then grown in a glasshouse under controlled conditions in a glasshouse (at 24/16° C., day/night; 14 hours light; 65% humidity) and watered twice daily. After 13 days for pre and post-emergence, the test is evaluated for the percentage herbicidal damage caused to the plant. The biological activities are shown in the following table on a five point scale (5=80-100% damage; 4=60-79% damage; 3=40-59% damage; 2=20-39% damage; 1=0-19% damage).

Solanum nigrum (SOLNI) [2] = experiment: Pre-emergence herbicidal glasshouse test on Solanum nigrum; conditions: for PRE Application SOLNI herbicidal damage (five point scale): pre-emergence, 1000 g/h, evaluated after 13 days
Description: as §1

[3] = test system: Echinochloa crus-galli (ECHCG); experiment: Post-emergence herbicidal glasshouse test on Echinochloa crus-galli; conditions: for POST Application ECHCG herbicidal damage (five point scale): post-emergence, 1000 g/h, evaluated after 13 days
Description: as §1

[4] = test system: Amaranthus retoflexus (AMARE); experiment: Post-emergence herbicidal glasshouse test on Amaranthus retoflexus; conditions: for POST Application AMARE herbicidal damage (five point scale): post-emergence, 1000 g/h, evaluated after 13 days
Description: as §1

Setaria faberi (SETFA) [5] = experiment: Pre-emergence herbicidal glasshouse test on Setaria faberi; conditions: for PRE Application SETFA herbicidal damage (five point scale): pre-emergence, 1000 g/h, evaluated after 13 days
Description: as §1

[6] = test system: Echinochloa crus-galli (ECHCG); experiment: Pre-emergence herbicidal glasshouse test on Echinochloa crus-galli; conditions: for PRE Application ECHCG herbicidal damage (five point scale): pre-emergence, 1000 g/h, evaluated after 13 days
Description: as §1

[7] = test system: Alopecurus myosuroides (ALOMY); experiment: Pre-emergence herbicidal glasshouse test on Alopecurus myosuroides; conditions: for PRE Application ALOMY herbicidal damage (five point scale): pre-emergence, 1000 g/h, evaluated after 13 days
Description: as §1

[8] = test system: Ipomoea hederacea (IPOHE); experiment: Post-emergence herbicidal glasshouse test on Ipomoea hederacea; conditions: for POST Application IPOHE herbicidal damage (five point scale): post-emergence, 1000 g/h, evaluated after 13 days
Description: as §1

Solanum nigrum (SOLNI) [9] = experiment: Post-emergence herbicidal glasshouse test on Solanum nigrum; conditions: for POST Application SOLNI herbicidal damage (five point scale): post-emergence, 1000 g/h, evaluated after 13 days
Description: as §1

Setaria faberi (SETFA) [10] = experiment: Post-emergence herbicidal glasshouse test on Setaria faberi; conditions: for POST Application SETFA herbicidal damage (five point scale): post-emergence, 1000 g/h, evaluated after 13 days
Description: as §1

[11] = test system: Alopecurus myosuroides (ALOMY); experiment: Post-emergence herbicidal glasshouse test on Alopecurus myosuroides; conditions: for POST Application ALOMY herbicidal damage (five point scale): post-emergence, 1000 g/h, evaluated after 13 days
Description: as §1

[12] = test system: Amaranthus retoflexus (AMARE); experiment: Pre-emergence herbicidal glasshouse test on Amaranthus retoflexus; conditions: for PRE Application AMARE herbicidal damage (five point scale): pre-emergence, 1000 g/h, evaluated after 13 days
Description: as §1

Compound	PRE Application IPOHE herbicidal damage (five point scale) [1]	PRE Application SOLNI herbicidal damage (five point scale) (Solanum nigrum (SOLNI) [2])	POST Application ECHCG herbicidal damage (five point scale) [3]	POST Application AMARE herbicidal damage (five point scale) [4]	PRE Application SETFA herbicidal damage (five point scale) (Setaria faberi (SETFA) [5])	PRE Application ECHCG herbicidal damage (five point scale) [6]	PRE Application ALOMY herbicidal damage (five point scale) [7]	POST Application IPOHE herbicidal damage (five point scale) [8]	POST Application SOLNI herbicidal damage (five point scale) (Solanum nigrum (SOLNI) [9])	POST Application SETFA herbicidal damage (five point scale) (Setaria faberi (SETFA) [10])	POST Application ALOMY herbicidal damage (five point scale) [11]	PRE Application AMARE herbicidal damage (five point scale) [12]	also measured
Cn1ncc(-c2cnc(-c3cccc(F)c3)n(C3CCCCC3)c2=O)c(O)c1=O [Compound 10.003, 3-cyclohexyl-2-(3-fluorophenyl)-5-(5-hydroxy-1-methyl-6-oxo-pyridazin-4-yl)pyrimidin-4-one]													PRE Application IPOHE ([1]; pre-emergence application, Ipomoea hederacea, damage score 1-5): 1 (1=0-19% damage); PRE Application SOLNI (Solanum nigrum (SOLNI) [2]; pre-emergence application, Solanum nigrum, damage score 1-5): 1 (1=0-19% damage); POST Application ECHCG ([3]; post-emergence application, Echinochloa crus-galli, damage score 1-5): 5 (5=80-100% damage); POST Application AMARE ([4]; post-emergence application, Amaranthus retoflexus, damage score 1-5): 5 (5=80-100% damage); PRE Application SETFA (Setaria faberi (SETFA) [5]; pre-emergence application, Setaria faberi, damage score 1-5): 1 (1=0-19% damage); PRE Application ECHCG ([6]; pre-emergence application, Echinochloa crus-galli, damage score 1-5): 1 (1=0-19% damage); PRE Application ALOMY ([7]; pre-emergence application, Alopecurus myosuroides, damage score 1-5): 1 (1=0-19% damage); POST Application IPOHE ([8]; post-emergence application, Ipomoea hederacea, damage score 1-5): 4 (4=60-79% damage); POST Application SOLNI (Solanum nigrum (SOLNI) [9]; post-emergence application, Solanum nigrum, damage score 1-5): 5 (5=80-100% damage); POST Application SETFA (Setaria faberi (SETFA) [10]; post-emergence application, Setaria faberi, damage score 1-5): 4 (4=60-79% damage); POST Application ALOMY ([11]; post-emergence application, Alopecurus myosuroides, damage score 1-5): 1 (1=0-19% damage); PRE Application AMARE ([12]; pre-emergence application, Amaranthus retoflexus, damage score 1-5): 5 (5=80-100% damage)
CCCn1ncc(-c2c(Cl)ccc(Cl)c2Cl)c(O)c1=O [Compound 1.128]	1 (1=0-19% damage)	1 (1=0-19% damage)	1 (1=0-19% damage)	1 (1=0-19% damage)	1 (1=0-19% damage)	1 (1=0-19% damage)	1 (1=0-19% damage)	3 (3=40-59% damage)	4 (4=60-79% damage)	2 (2=20-39% damage)	1 (1=0-19% damage)	1 (1=0-19% damage)	
Cc1c(-c2cnn(C(C)C)c(=O)c2O)ccc(S(C)(=O)=O)c1C1=NOCC1 [Compound 1.012]	4 (4=60-79% damage)	5 (5=80-100% damage)	5 (5=80-100% damage)	5 (5=80-100% damage)	4 (4=60-79% damage)	5 (5=80-100% damage)	4 (4=60-79% damage)	5 (5=80-100% damage)	5 (5=80-100% damage)	5 (5=80-100% damage)	5 (5=80-100% damage)	5 (5=80-100% damage)	
Cn1ncc(-c2ccc(Cl)c(Cl)c2Cl)c(O)c1=O [Compound 1.091]	1 (1=0-19% damage)	1 (1=0-19% damage)	1 (1=0-19% damage)	1 (1=0-19% damage)	1 (1=0-19% damage)	1 (1=0-19% damage)	1 (1=0-19% damage)	1 (1=0-19% damage)	2 (2=20-39% damage)	1 (1=0-19% damage)	1 (1=0-19% damage)	1 (1=0-19% damage)	
Cn1ncc(-c2ccccc2S(C)(=O)=O)c(O)c1=O [Compound 1.046]	1 (1=0-19% damage)	5 (5=80-100% damage)	5 (5=80-100% damage)	5 (5=80-100% damage)	3 (3=40-59% damage)	5 (5=80-100% damage)	5 (5=80-100% damage)	5 (5=80-100% damage)	5 (5=80-100% damage)	5 (5=80-100% damage)	5 (5=80-100% damage)	5 (5=80-100% damage)	
Cc1ccc(-c2cnn(C)c(=O)c2O)c(S(C)(=O)=O)c1 [Compound 2.031]	3 (3=40-59% damage)	5 (5=80-100% damage)	5 (5=80-100% damage)	5 (5=80-100% damage)	5 (5=80-100% damage)	5 (5=80-100% damage)	4 (4=60-79% damage)	5 (5=80-100% damage)	5 (5=80-100% damage)	5 (5=80-100% damage)	4 (4=60-79% damage)	5 (5=80-100% damage)	
C#Cn1ncc(-c2ccc(Cl)cc2S(C)(=O)=O)c(O)c1=O [Compound 2.011]	5 (5=80-100% damage)	5 (5=80-100% damage)	5 (5=80-100% damage)	5 (5=80-100% damage)	5 (5=80-100% damage)	5 (5=80-100% damage)	5 (5=80-100% damage)	5 (5=80-100% damage)	5 (5=80-100% damage)	5 (5=80-100% damage)	5 (5=80-100% damage)	5 (5=80-100% damage)	
Cn1ncc(-c2ccc(C(F)(F)F)n(-c3cccc(C(F)(F)F)n3)c2=O)c(O)c1=O [Compound 9.001]	1 (1=0-19% damage)	1 (1=0-19% damage)	4 (4=60-79% damage)	3 (3=40-59% damage)	1 (1=0-19% damage)	2 (2=20-39% damage)	3 (3=40-59% damage)	1 (1=0-19% damage)	4 (4=60-79% damage)	4 (4=60-79% damage)	4 (4=60-79% damage)	2 (2=20-39% damage)	
Cn1ncc(-c2ccc(S(C)(=O)=O)c(C3=NOCC3)c2Cl)c(O)c1=O [Compound 1.032]	4 (4=60-79% damage)	5 (5=80-100% damage)	5 (5=80-100% damage)	5 (5=80-100% damage)	5 (5=80-100% damage)	5 (5=80-100% damage)	5 (5=80-100% damage)	5 (5=80-100% damage)	5 (5=80-100% damage)	5 (5=80-100% damage)	5 (5=80-100% damage)	5 (5=80-100% damage)	
